Data: patent publication US12590296B2, “Method of culturing immortalized human hepatic progenitors or cells” (INSERM (INSTITUT NATIONAL DE LA SANTÉ ET DE LA RECHERCHE …, priority 2019, dated 2026)
“Also recorded” adds a separate entry of the source.

Tests used:
[1] = system: HepaRG cells; settings: HepaRG cells in 3D GelMa culture, in the presence of U126 (16.4% in its absence); data not shown
[2] = system: HuH-7 cells; experiment: Cleaved caspase 3 (apoptosis) in HuH-7 cells in 3D GelMa culture; type: cell-based, human; settings: treatment at day 14, data not shown
Procedure: Cell laden 3D constructs were fixed in 4% formaldehyde, washed 3 times in PBS and stored at 4° C. until use or immediately suspended in a 0.12 M phosphate buffer containing 10% w/v saccharose and incubated overnight. They were embedded in a protective matrix composed of gelatin 7.5% w/v and 10% w/v saccharose, then frozen in isopentane and cryosectioned at a thickness of 7 μm. Slides were stained on the Discovery Automated IHC stainer using the discovery Rhodamin kit (Ventana Mediacl systems, Tucson, AZ, USA). The concentrations and references of the primary antibodies that were used can be found in Table 1 below. After rinsing, signal enhancement was performed using the Ventana Rhodamin kit and secondary antibody anti-rabbit HRP (760-4311, Roche) or secondary antibody anti-mouse HRP (760-4310, Roche) for 16 min of incubation. After removal from the instrument, slides were manually rinsed, stained when required with albumin antibody then a secondary antibody for albumin detection (Donkey anti goat 488), and mounted with Dapi Fluoromount-G.

[3] = system: LX-2 cells; experiment: mRNA expression (RT-qPCR) in LX-2 cells in 3D GelMa culture; type: cell-based, human; settings: 5 ng/mL every 48 h from day 2
Procedure: After 1, 2 and 4 week(s) of culture, 3D constructs comprising 3D cell structures were harvested, washed twice in PBS and total ribonucleic acid (RNA) was extracted using TRIzol™ reagent. The concentration of total RNA was measured with a NanoDrop ND-1000 (NanoDrop Technologies). Complementary deoxyribonucleic acid (cDNA) was synthetized using the High Capacity cDNA reverse transcriptase kit (Applied Biosystems Foster City, CA, USA), and real-time polymerase chain reaction (PCR) was performed using the Power SYBR Green PCR master mix (Applied Biosystems Foster City, CA, USA). […] The expression levels of the target genes were normalized to those of GAPDH and determined by the ΔΔCt method. Final results were expressed as the n-fold difference in target gene expression in samples when compared with the mean expression values of the target gene for controls: either non-differentiated HepaRG (referred to as 2D) or HepaRG differentiated in standard 2D culture conditions (referred to as 2D DMSO). […]
First, the culture of LX-2 cells alone in 3D GelMa culture was assessed, with or without treatment with TGFβ-1, a classical pro-fibrotic cytokine (Czaja et al., J Cell Biol. 1989 June; 108(6):2477-82). […] Then, the mRNA expression of ACTA2, ADAMTS12, LPL, COL1A1, MMP2, TGFβ-1 and TIMP1 was assessed in LX-2 cells in 3D GelMa culture, stimulated or not by TGFβ-1 (FIGS. 14A-G, respectively). […]

[4] = system: LX-2 cells; experiment: SHG microscopy of fibrillar collagen, LX-2 cells alone in 3D GelMa; type: cell-based, human; settings: LX-2 cells cultured alone in 3D GelMa, after induction
Procedure: (§1) TPEF/SHG microscopy imaging was performed on mRIC facility of Biosit, University of Rennes1 (France). The SHG imaging system is composed of a confocal TCS SP5 scanning head (Leica Microsystems, Mannheim, Germany) mounted on a DMIRE2 inverted microscope (Leica Microsystems) and equipped with a MAITAI femtosecond laser (Spectra Physics, Santa Clara, CA). 60× water immersion objective (Olympus LUMFL 60 W×1.1NA) was used for applying an 820 nm excitation to the sample. The SHG signal was collected in the forward direction using the condenser (S1, NA ¼ 0.9-1.4; Leica Microsystems), and the TPEF was epi-collected in the backward direction. IRSP 715 bandpass and 410 nm infrared (IR) filters (10 nm full width at half-maximum, FWHM) were placed before the photomultiplier tube. The image processing was performed with ImageJ software (National Institutes of Health).
(§2) SHG microscopy was used to visualize fibrillar collagen, mostly collagen-1 and -3. Briefly, SHG relies on the nonlinear optical interactions with […] fibrillar structures, such as collagen type I, allowing their detection and quantification in 3D tissues. […] For example, such culture is not suitable for the study of liver fibrosis.

[5] = system: HepaRG cells; experiment: SHG microscopy of fibrillar collagen, HepaRG cells alone in 3D GelMa; type: cell-based, human; settings: HepaRG cells cultured alone in 3D GelMa, with or without treatment
Procedure: as §1, §2

[6] = system: HepaRG cells in coculture with LX-2 cells and HUVECs (CoC); experiment: mRNA expression (RT-qPCR) in HepaRG + LX-2 + HUVECs coculture (CoC) in 3D GelMa; type: cell-based, human
Procedure: After 1, 2 and 4 week(s) of culture, 3D constructs comprising 3D cell structures were harvested, washed twice in PBS and total ribonucleic acid (RNA) was extracted using TRIzol™ reagent. The concentration of total RNA was measured with a NanoDrop ND-1000 (NanoDrop Technologies). Complementary deoxyribonucleic acid (cDNA) was synthetized using the High Capacity cDNA reverse transcriptase kit (Applied Biosystems Foster City, CA, USA), and real-time polymerase chain reaction (PCR) was performed using the Power SYBR Green PCR master mix (Applied Biosystems Foster City, CA, USA). Basic local alignment search tool (BLAST) was used to design primer sequences which were purchased from Eurogentec (Searing, BE). The expression levels of the target genes were normalized to those of GAPDH and determined by the ΔΔCt method. Final results were expressed as the n-fold difference in target gene expression in samples when compared with the mean expression values of the target gene for controls: either non-differentiated HepaRG (referred to as 2D) or HepaRG differentiated in standard 2D culture conditions (referred to as 2D DMSO). All results are presented as mean±SD of at least n=3 experiments.
(§3) For coculture constructs, the bioprinted 3D structure comprising HepaRG cells and LX-2 cells was cultured during a week, before being put in a low attachment plate containing 1×10^6 HUVECs per mL of medium.
The mRNA expression of hepatic genes (ALB, ALDOB, PPARA and SERPINA1) and of myofibroblastic transition genes and extracellular matrix remodeling genes (ACTA2, ADAMTS12, COL1A1, COL3A1, MMP2, MMP9 and TIMP1) was assessed at day 21 (i) in HepaRG alone in 3D GelMa culture, (ii) in HepaRG in 3D GelMa culture with LX-2 cells and HUVECs (CoC) and (iii) in HepaRG in 3D GelMa culture with LX-2 cells and HUVECs (CoC) activated with TGFβ-1 treatment for 7 days (FIGS. 16A-K). […] The albumin secretion of the HepaRG cells in coculture with the LX-2 cells and HUVECs (CoC) was also assessed and compared to that of HepaRG cells cultured alone (HepaRG) and bioprinted in GelMa matrix under the same conditions.

[7] = system: HepaRG cells in coculture with LX-2 cells and HUVECs (CoC); experiment: Albumin, urea and pro-collagen 1a1 secretion in coculture (CoC); type: cell-based, human
Procedure: (§4) Medium samples were taken for the determination of albumin and urea content every 48 h. Secreted albumin and proCol1a1 (pro-collagen 1 alpha 1) were quantified using the human serum albumin Duoset Enzyme Linked Immunosorbent Assay (ELISA) kit (R&D systems, Minneapolis, MN, USA) and the human pro-Col1a1 Duoset Enzyme Linked Immunosorbent Assay kits (R&D systems, Minneapolis, MN, USA), according to manufacturer's instructions. Quantification was performed by measuring absorbance at 450 nm using a microplate reader (SpectrostarNano, BMG labtech, Champigny s/Marne, FR). Urea secretion in the medium was measured using a ChromaDazzle Urea Assay kit (AssayGenie, Dublin, IR) according to the manufacturer's protocol, using medium as standard and reading the absorbance at 420 nm (SpectrostarNano, BMG labtech, Champigny s/Marne, FR)
as §3

[8] = system: HepaRG cells in coculture with LX-2 cells and HUVECs (CoC); experiment: LDH release in coculture (CoC); type: cell-based; settings: 5 ng/mL every 48 h for 7 days
Procedure: (§5) Cell viability was assessed by using the WST-1 (water soluble tetrazolium-1) proliferation assay on cell laden 3D constructs at different days or times of culture. Briefly, the cell laden 3D constructs were treated with 100 μL of WST-1 reagent and incubated 30 min at 37° C. Absorbance at 440 nm was read in a microplate reader (SpectrostarNano, BMG labtech, Champigny s/Marne, FR) and the values were converted into percentage of absorbance by comparison with controls assessed at day 0 or time 0. Measurement of lactate dehydrogenase (LDH) was performed on supernatants with the LDH-Glo™ Cytotoxicity Assay (Promega) by following manufacturer's instructions.

[9] = system: HepaRG or HepaRG+HUVECs; experiment: Pro-collagen 1a1 secretion (ELISA) in HepaRG or HepaRG+HUVECs; type: cell-based, human; settings: day 21
Procedure: as §4

[10] = type: physicochemical
Procedure: The physical properties of different methacrylated gelatin matrices (GelMa matrices) were analyzed by assessing the polymerization and bioprinting properties of the matrices as a function of the GelMa concentration, the photoinitiator LAP concentration and the illumination time at 405 nm (FIG. 1). As shown on FIG. 1A, at 20° C. a concentration of GelMa of 2.5% was not sufficient to ensure a proper polymerization of the matrix and subsequently, an optimal viscosity for the bioprinting process. As shown on FIG. 1B, a minimum concentration of LAP (i.e., 0.1% (w/v)) and an optimized illumination time (i.e., 60 seconds) were defined to reduce the phototoxicity and the production of excess free radicals while maintaining sufficient structural integrity of the printed GelMa for 28 days at 37° C. As shown on FIGS. 1C-D, weight loss of the matrices was assessed as a function of the photoinitiator LAP concentration (either 0.1% (w/v) on FIG. 1C or 0.3% (w/v) on FIG. 1D) and the illumination time at 405 nm. A rapid decrease of the matrix weight, of up to about 40%, was observed 5 hours after the polymerization process (FIG. 1C-D). Then, a constant weight for at least 28 days was observed, indicating a good stability of the matrix in the culture medium at 37° C. (FIGS. 1C-D). […]

[11] = system: HuH-7 cells; type: cell-based, human
Procedure: as §5

[12] = CoC, day 21, 5 ng/mL every 48 h for 7 days

For `N#CC(=C(/N)Sc1ccccc1N)/C(C#N)=C(/N)Sc1ccccc1N` [U126], the EdU positive cells [1] was 0.9%.
In the case of `N.N.[Cl][Pt][Cl]` [cisplatin], the “response of the cells to an apoptotic inducer (caspase 3)” value [2] is reported as “responded well”.
With “TGFβ-1: a classical pro-fibrotic cytokine” the “mRNA expression of ACTA2, COL1A1, MMP2 and TIMP1” value [3] was “clearly increased in a time-dependent manner”, the “collagen fibrils (SHG microscopy)” value [4] was “Very few collagen fibrils or no collagen fibrils at all; also recorded: no collagen fibrils were ever observed” and the “collagen deposition (SHG microscopy)” value [5] was “No collagen deposition”. For the same compound, the “expression of genes involved in ECM homeostasis (ACTA2, ADAMTS12, COL1A1, COL3A1, MMP2, MMP9 and TIMP1)” value [6, 12] was “increase”, the “hepatic gene mRNA expression (ALB, ALDOB, PPARA and SERPINA1)” value [6, 12] was “decrease” and the COL1A1 expression ([6]; HepaRG alone, HepaRG+HUVECs and CoC (all three conditions)) was “significant increase”. For the same compound, the albumin secretion ([7]; CoC, 5 ng/mL every 48 h for 7 days) was “decrease”, the urea secretion ([7]; CoC, over the 21 days of culture, with or without treatment, data not shown) was “remained stable” and the “pro-collagen 1a1 secretion” value ([7]; HepaRG+LX-2+HUVECs (CoC), day 21) was “no significant increase”. For the same compound, the “release of LDH (a cell death marker) in the medium” value [8] was “no specific release” and the “pro-collagen 1a1 secretion” value [9] was “significatively induces its secretion”.
For methacrylated gelatin [GelMa], the “constant weight (stability of the matrix in the culture medium)” value [10] was “at least 28 days” and the “HuH-7 cell viability (WST-1 proliferation assay)” value [11] was “no decrease”.
